PubChem BioAssay AID2060894 (Molecular Pharmacology Branch, DTP, NCI, 2025)
Each block holds one compound with its values, some of them ahead of it.

Test system: K12877-001-R-J1-PDC complex spheroid viability
Assay: Anticancer human tumor K12877-001-R-J1-PDC patient-derived lung adenocarcinoma cell line growth inhibition [RAS]
Conditions: for IC50: curve of first compound; for viability, T/C: stronger effect = lower value
Procedure, shortened: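 Tumour cells grown as complex spheroids with HUVEC endothelial cells and mesenchymal stem cells, treated with RAS pathway inhibitor combinations. Each agent spans half-log steps from near clinical Cmax, or 10 microM where Cmax is unknown.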

[1] = second compound 0.000949 µM, first compound 0.00316 µM
[2] = second compound 0.000949 µM, first compound 0.01 µM
[3] = second compound 0.000949 µM, first compound 0.0316 µM
[4] = second compound 0.000949 µM, first compound 0.1 µM
[5] = second compound 0.000949 µM, first compound 0.316 µM
[6] = second compound 0.000949 µM, first compound 1 µM
[7] = second compound 0.003 µM, first compound 0.00316 µM
[8] = second compound 0.003 µM, first compound 0.01 µM
[9] = second compound 0.003 µM, first compound 0.0316 µM
[10] = second compound 0.003 µM, first compound 0.1 µM
[11] = second compound 0.003 µM, first compound 0.316 µM
[12] = second compound 0.003 µM, first compound 1 µM
[13] = second compound 0.00949 µM, first compound 0.00316 µM
[14] = second compound 0.00949 µM, first compound 0.01 µM
[15] = second compound 0.00949 µM, first compound 0.0316 µM
[16] = second compound 0.00949 µM, first compound 0.1 µM
[17] = second compound 0.00949 µM, first compound 0.316 µM
[18] = second compound 0.00949 µM, first compound 1 µM
[19] = second compound 0.03 µM, first compound 0.00316 µM
[20] = second compound 0.03 µM, first compound 0.01 µM
[21] = second compound 0.03 µM, first compound 0.0316 µM
[22] = second compound 0.03 µM, first compound 0.1 µM
[23] = second compound 0.03 µM, first compound 0.316 µM
[24] = second compound 0.03 µM, first compound 1 µM
[25] = second compound 0.0949 µM, first compound 0.00316 µM
[26] = second compound 0.0949 µM, first compound 0.01 µM
[27] = second compound 0.0949 µM, first compound 0.0316 µM
[28] = second compound 0.0949 µM, first compound 0.1 µM
[29] = second compound 0.0949 µM, first compound 0.316 µM
[30] = second compound 0.0949 µM, first compound 1 µM
[31] = second compound 0.3 µM, first compound 0.00316 µM
[32] = second compound 0.3 µM, first compound 0.01 µM
[33] = second compound 0.3 µM, first compound 0.0316 µM
[34] = second compound 0.3 µM, first compound 0.1 µM
[35] = second compound 0.3 µM, first compound 0.316 µM
[36] = second compound 0.3 µM, first compound 1 µM
[37] = second compound 0.000949 µM, first compound 3.16 µM
[38] = second compound 0.000949 µM, first compound 10 µM
[39] = second compound 0.003 µM, first compound 3.16 µM
[40] = second compound 0.003 µM, first compound 10 µM
[41] = second compound 0.00949 µM, first compound 3.16 µM
[42] = second compound 0.00949 µM, first compound 10 µM
[43] = second compound 0.03 µM, first compound 3.16 µM
[44] = second compound 0.03 µM, first compound 10 µM
[45] = second compound 0.0949 µM, first compound 3.16 µM
[46] = second compound 0.0949 µM, first compound 10 µM
[47] = second compound 0.3 µM, first compound 3.16 µM
[48] = second compound 0.3 µM, first compound 10 µM
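Further: spheroids exposed to agents for one week before readout.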
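Wherever viability, T/C is given: tumour cells co-cultured with HUVEC and mesenchymal stem cells in spheroids.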

IC50 (second compound 0.000949 µM): > 1000 nM
IC50 (second compound 0.003 µM): > 1000 nM
IC50 (second compound 0.00949 µM): > 1000 nM
IC50 (second compound 0.03 µM): > 1000 nM
IC50 (second compound 0.0949 µM): > 1000 nM
IC50 (second compound 0.3 µM): > 1000 nM
Compound: C=CC(=O)Nc1cc(Nc2nccc(-c3cn(C)c4ccccc34)n2)c(OC)cc1N(C)CCN(C)C + CCn1c(-c2cc(N3CCN(C)CC3)cnc2C(C)OC)c2c3cc(ccc31)-c1csc(n1)CC(NC(=O)C1CC1C)C(=O)N1CCCC(N1)C(=O)OCC(C)(C)C2
viability, T/C [1]: 90.8%
viability, T/C [2]: 69.3%
viability, T/C [3]: 83.4%
viability, T/C [4]: 78.9%
viability, T/C [5]: 82.4%
viability, T/C [6]: 71.3%
viability, T/C [7]: 73.7%
viability, T/C [8]: 70.3%
viability, T/C [9]: 66.1%
viability, T/C [10]: 74.4%
viability, T/C [11]: 74.9%
viability, T/C [12]: 72%
viability, T/C [13]: 82.9%
viability, T/C [14]: 71.4%
viability, T/C [15]: 69%
viability, T/C [16]: 69.6%
viability, T/C [17]: 63%
viability, T/C [18]: 73%
viability, T/C [19]: 89.3%
viability, T/C [20]: 83.2%
viability, T/C [21]: 80.4%
viability, T/C [22]: 75.9%
viability, T/C [23]: 90.2%
viability, T/C [24]: 93.1%
viability, T/C [25]: 106%
viability, T/C [26]: 104%
viability, T/C [27]: 125%
viability, T/C [28]: 97.7%
viability, T/C [29]: 87.7%
viability, T/C [30]: 84.7%
viability, T/C [31]: 90%
viability, T/C [32]: 96.1%
viability, T/C [33]: 93%
viability, T/C [34]: 89.8%
viability, T/C [35]: 82.5%
viability, T/C [36]: 73.7%

IC50 (second compound 0.000949 µM): 7690 nM
IC50 (second compound 0.003 µM): 4360 nM
IC50 (second compound 0.00949 µM): 1910 nM
IC50 (second compound 0.03 µM): 1190 nM
IC50 (second compound 0.0949 µM): 717 nM
IC50 (second compound 0.3 µM): 360 nM
Compound: CC(C)NCC(C(=O)N1CCN(c2ncnc3c2C(C)CC3O)CC1)c1ccc(Cl)cc1 (stereo not drawn) + CCn1c(-c2cc(N3CCN(C)CC3)cnc2C(C)OC)c2c3cc(ccc31)-c1csc(n1)CC(NC(=O)C1CC1C)C(=O)N1CCCC(N1)C(=O)OCC(C)(C)C2
viability, T/C [3]: 91.9%
viability, T/C [4]: 90.3%
viability, T/C [5]: 80.9%
viability, T/C [6]: 104%
viability, T/C [37]: 69.3%
viability, T/C [38]: 44.3%
viability, T/C [9]: 73.9%
viability, T/C [10]: 82.8%
viability, T/C [11]: 78.3%
viability, T/C [12]: 88%
viability, T/C [39]: 58%
viability, T/C [40]: 29.3%
viability, T/C [15]: 60.9%
viability, T/C [16]: 74.3%
viability, T/C [17]: 74.4%
viability, T/C [18]: 74.9%
viability, T/C [41]: 33.4%
viability, T/C [42]: 19.6%
viability, T/C [21]: 101%
viability, T/C [22]: 103%
viability, T/C [23]: 94.2%
viability, T/C [24]: 52.9%
viability, T/C [43]: 28.4%
viability, T/C [44]: 17.1%
viability, T/C [27]: 106%
viability, T/C [28]: 104%
viability, T/C [29]: 75.8%
viability, T/C [30]: 39.5%
viability, T/C [45]: 18.8%
viability, T/C [46]: 12.7%
viability, T/C [33]: 101%
viability, T/C [34]: 78.6%
viability, T/C [35]: 55%
viability, T/C [36]: 27.2%
viability, T/C [47]: 17.1%
viability, T/C [48]: 10.9%

IC50 (second compound 0.000949 µM): > 10000 nM
IC50 (second compound 0.003 µM): 7420 nM
IC50 (second compound 0.00949 µM): 4590 nM
IC50 (second compound 0.03 µM): 1250 nM
IC50 (second compound 0.0949 µM): 249 nM
IC50 (second compound 0.3 µM): 77.5 nM
Compound: CC(Nc1ccc2c(c1)OCCn1cc(N3C(=O)OCC3C(F)F)nc1-2)C(N)=O (stereo not drawn) + CCn1c(-c2cc(N3CCN(C)CC3)cnc2C(C)OC)c2c3cc(ccc31)-c1csc(n1)CC(NC(=O)C1CC1C)C(=O)N1CCCC(N1)C(=O)OCC(C)(C)C2
viability, T/C [3]: 80.9%
viability, T/C [4]: 81.2%
viability, T/C [5]: 81.5%
viability, T/C [6]: 72.4%
viability, T/C [37]: 62.2%
viability, T/C [38]: 56%
viability, T/C [9]: 71.6%
viability, T/C [10]: 68.2%
viability, T/C [11]: 63.4%
viability, T/C [12]: 68.3%
viability, T/C [39]: 62.9%
viability, T/C [40]: 45.5%
viability, T/C [15]: 72.7%
viability, T/C [16]: 68.9%
viability, T/C [17]: 70.6%
viability, T/C [18]: 69.5%
viability, T/C [41]: 59.1%
viability, T/C [42]: 29.9%
viability, T/C [21]: 94.3%
viability, T/C [22]: 82.6%
viability, T/C [23]: 64.1%
viability, T/C [24]: 52.6%
viability, T/C [43]: 42.7%
viability, T/C [44]: 20%
viability, T/C [27]: 80.3%
viability, T/C [28]: 61.2%
viability, T/C [29]: 43.8%
viability, T/C [30]: 35.8%
viability, T/C [45]: 23.7%
viability, T/C [46]: 12%
viability, T/C [33]: 65.9%
viability, T/C [34]: 40.2%
viability, T/C [35]: 32.2%
viability, T/C [36]: 30.3%
viability, T/C [47]: 19.1%
viability, T/C [48]: 8.63%

IC50 (second compound 0.000949 µM): > 1000 nM
IC50 (second compound 0.003 µM): > 1000 nM
IC50 (second compound 0.00949 µM): > 1000 nM
IC50 (second compound 0.03 µM): 508 nM
IC50 (second compound 0.0949 µM): 98.8 nM
IC50 (second compound 0.3 µM): 58.5 nM
Compound: O=C(c1ccc(F)c(F)c1Nc1ccc(I)cc1F)N1CC(O)([C@@H]2CCCCN2)C1 + CCn1c(-c2cc(N3CCN(C)CC3)cnc2C(C)OC)c2c3cc(ccc31)-c1csc(n1)CC(NC(=O)C1CC1C)C(=O)N1CCCC(N1)C(=O)OCC(C)(C)C2
viability, T/C [1]: 79.6%
viability, T/C [2]: 71.2%
viability, T/C [3]: 66%
viability, T/C [4]: 57.9%
viability, T/C [5]: 71.4%
viability, T/C [6]: 56%
viability, T/C [7]: 71.4%
viability, T/C [8]: 66.6%
viability, T/C [9]: 68.1%
viability, T/C [10]: 79%
viability, T/C [11]: 82.6%
viability, T/C [12]: 60.5%
viability, T/C [13]: 71.3%
viability, T/C [14]: 65.8%
viability, T/C [15]: 82%
viability, T/C [16]: 91.3%
viability, T/C [17]: 80.7%
viability, T/C [18]: 53.5%
viability, T/C [19]: 110%
viability, T/C [20]: 105%
viability, T/C [21]: 98.9%
viability, T/C [22]: 72.6%
viability, T/C [23]: 59.4%
viability, T/C [24]: 40%
viability, T/C [25]: 92.7%
viability, T/C [26]: 90.4%
viability, T/C [27]: 77.8%
viability, T/C [28]: 50.3%
viability, T/C [29]: 29%
viability, T/C [30]: 25.6%
viability, T/C [31]: 80.2%
viability, T/C [32]: 74.9%
viability, T/C [33]: 54.8%
viability, T/C [34]: 44.8%
viability, T/C [35]: 29.2%
viability, T/C [36]: 20.3%
